From US5541163A, “Renin inhibiting N-(2-amino-2-oxoethyl)butanediamide derivatives” (Bio-Mega/Boehringer Ingelheim Research Inc., priority 1993, dated 1996)

Biological target: T1, human renin (Homo sapiens, UniProt P00797)
T1 construct: A human plasma pool is used as the source of both the substrate (angiotensinogen) and the enzyme (renin); from tissue; host or cells: human plasma pool
T1 sequence (P00797 67-406): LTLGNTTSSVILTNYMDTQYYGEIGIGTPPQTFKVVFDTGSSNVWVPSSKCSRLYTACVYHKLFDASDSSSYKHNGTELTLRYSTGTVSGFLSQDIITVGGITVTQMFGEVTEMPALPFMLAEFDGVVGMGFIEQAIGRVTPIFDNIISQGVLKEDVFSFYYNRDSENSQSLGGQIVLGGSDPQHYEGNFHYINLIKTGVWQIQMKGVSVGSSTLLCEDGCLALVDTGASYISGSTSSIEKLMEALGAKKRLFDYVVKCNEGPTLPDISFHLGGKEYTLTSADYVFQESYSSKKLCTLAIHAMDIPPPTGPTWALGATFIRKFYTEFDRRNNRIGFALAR
Test: Plasma renin assay (inhibition of human renin, angiotensin I by RIA)
Format: biochemical
Settings: human plasma pool, pH 6.0, 2 h incubation at 37°
Protocol: The assay is performed as follows: The test compound (i.e. the inhibitor) is dissolved in dimethylsulfoxide (1 mM stock solution) and diluted with an aqueous buffer solution of 270 mM 2-(N-morpholino)ethanesulfonic acid and 1% human serum albumin (pH 5.85, also containing dimercaprol and 8-hydroxyquinoline sulfate in accordance with the instructions of the RIA kit noted below) to give an assay mixture in which the final dimethylsulfoxide content is 1% (v/v).
A human plasma pool is used as the source of both the substrate (angiotensinogen) and the enzyme (renin). The reaction is initiated by the addition of 50 μL of human plasma pool to 50 μL of various concentrations of inhibitor in the 1% dimethylsulfoxide assay buffer. The plasma renin activity is measured by the amount of angiotensin I generated at pH 6.0 following a 2 h incubation at 37°.
Quantitation of angiotensin I is performed by radioimmunoassay (RIA kit from New England Nuclear-Dupont, Mississauga, ON, Canada). The enzymatic activity of renin is expressed in ng of angiotensin I generated (/mL/2 h). The extent of inhibition of the reaction is determined from the amount of angiotensin I generated in reference to a control prepared without inhibitor. Nonlinear regression analysis is used to calculate the IC50 values, i.e. the molar concentration of the test compound required to cause a 50% inhibition of the enzyme activity.

Compound	IC50 [nM]
CC(C)C[C@H](O)[C@H](O)[C@H](CC1CCCCC1)NC(=O)[C@@H](CC(=O)N(CC(=O)N(C)CCc1ccccn1)[C@@H](C)c1ccccc1)CC1CC1 [Compound 22, N^4-[1(S)-phenylethyl]-N^4 -{2-{methyl[2-(2-pyridinyl)ethyl]-amino}-2-oxoethyl}-N^1-(1(S)-(cyclohexylmethyl)-2(R),3(S)-dihydroxy-5-methylhexyl]-2(R)-(cyclopropylmethyl)-butanediamide]	20
CCN(CC)CCN(C)C(=O)CN(C(=O)C[C@@H](CC1CC1)C(=O)N[C@@H](CC1CCCCC1)[C@@H](O)[C@@H](O)CC(C)C)[C@@H](C)c1ccccc1 [Compound 24, N^4 -{2-{[2-(diethylamino)ethyl]methylamino}-2-oxoethyl}-N^4-[1(S)-phenylethyl]-N^1-[1(S)-(cyclohexylmethyl)-2(R),3(S)-dihydroxy-5-methylhexyl]-2(R)-(cyclopropylmethyl)-butanediamide]	61
CC(C)C[C@H](O)[C@H](O)[C@H](CC1CCCCC1)NC(=O)[C@@H](CC(=O)N(CC(=O)N(C)C)[C@@H](C)c1ccccc1)Cc1c[nH]cn1 [Compound 27, N^4-[2-(dimethylamino)-2-oxoethyl]-N^4-(1(S)-phenylethyl]-N^1-[1(S)-(cyclohexylmethyl)-2(R),3(S)-dihydroxy-5-methylhexyl]-2(R)-(1H-imidazol-4-ylmethyl)butanediamide]	6
CC(C)C[C@H](O)[C@H](O)[C@H](CC1CCCCC1)NC(=O)[C@@H](CC(=O)N(CC(=O)N(C)C)[C@@H](C)c1ccccc1)Cc1cscn1 [Compound 30, N^4-[2-(dimethylamino)-2-oxoethyl]-N^4-[1(S)-phenylethyl]-N^1-[1(S)-(cyclohexylmethyl)-2(R),3(S)-dihydroxy-5-methylhexyl]-2(R)-(4-thiazolylmethyl)butanediamide]	2.5
CC(C)C[C@H](O)[C@H](O)[C@H](CC1CCCCC1)NC(=O)[C@@H](CC(=O)N(CC(=O)N(C)C)CC1CCCCC1)CC1CC1 [Compound 31, N^4-(cyclohexylmethyl)-N^4-(2-(dimethylamino)-2-oxoethyl]-N^1-[1(S)-(cyclohexylmethyl)-2(R),3(S)-dihydroxy-5-methylhexyl]-2(R)-(cyclopropylmethyl)butanediamide]	13
CC(C)C[C@H](O)[C@H](O)[C@H](CC1CCCCC1)NC(=O)[C@@H](CC(=O)N(CC(=O)N(C)C)[C@@H](C)c1ccccc1)Cc1cccs1 [Compound 32, N^4-(2-(dimethylamino)-2-oxoethyl]-N^4-(1(S)-phenylethyl]-N^1-[1(S)-(cyclohexylmethyl)-2(R),3(S)-dihydroxy-5-methylhexyl]-2(S)-(2-thienylmethyl)butanediamide]	13
CC(C)C[C@H](O)[C@H](O)[C@H](CC1CCCCC1)NC(=O)[C@@H](CC(=O)N(CC(=O)N1CCOCC1)CC1CCCCC1)CC1CC1 [Compound 35, N^4-(cyclohexylmethyl)-N^4-(2-morpholino-2-oxoethyl)-N^1-[1(S)-(cyclohexylmethyl)-2(R),3(S)-dihydroxy-5-methylhexyl]-2(R)-(cyclopropylmethyl)butanediamide]	8
CC(C)C[C@H](O)[C@H](O)[C@H](CC1CCCCC1)NC(=O)[C@@H](CC(=O)N(CC(=O)N(C)C)CC1CCCCC1)Cc1nccs1 [Compound 37, N^4-(cyclohexylmethyl)-N^4-[2-(dimethylamino)-2-oxoethyl]-N^1-[1(S)-(cyclohexylmethyl)-2(R),3(S)-dihydroxy-5-methylhexyl]-2(S)-(2-Thiazolylmethyl)butanediamide]	1.6
CC(C)C[C@H](O)[C@H](O)[C@H](CC1CCCCC1)NC(=O)[C@@H](CC(=O)N(CC(=O)N(C)C)[C@@H](C)C1CCCCC1)CC1CC1 [Compound 38, N^4-(1(S)-cyclohexylethyl)-N^4-[2-(dimethylamino)-2-oxoethyl]-N^1-[1(S)-(cyclohexylmethyl)-2(R),3(S)-dihydroxy-5-methylhexyl]-2(R)-(cyclopropylmethyl)butanediamide]	8.3

The next lines start with the values.

IC50 [nM]	Compound
37	CC(C)C[C@H](O)[C@H](O)[C@H](CC1CCCCC1)NC(=O)[C@@H](CC(=O)N(CC(=O)N(C)C)C[C@@H](C)c1ccccc1)CC1CC1 [Compound 20, N^4-[2-(dimethylamino)-2-oxoethyl]-N^4-(2(S)-phenylpropyl]-N^1-(1(S)-(cyclohexylmethyl)-2(R),3(S)-dihydroxy-5-methylhexyl]-2(R)-(cyclopropylmethyl)butanediamide]
150	CC(C)C[C@H](O)[C@H](O)[C@H](CC1CCCCC1)NC(=O)[C@@H](CC(=O)N(CC(=O)N(C)C)CC(C)(C)c1ccccc1)CC1CC1 [Compound 21, N^4-[2-(dimethylamino)-2-oxoethyl]-N^4-(2-methyl-2-phenylpropyl)-N^1-[1(S)-(cyclohexylmethyl)-2(R),3(S)-dihydroxy-5-methylhexyl]-2(R)-(cyclopropylmethyl)butanediamide]
26	CC(C)C[C@H](O)[C@H](O)[C@H](CC1CCCCC1)NC(=O)[C@@H](CC(=O)N(CC(=O)N(C)CCN(C)C)[C@@H](C)c1ccccc1)CC1CC1 [Compound 23, N^4 -{2-{[2-(dimethylamino)ethyl]methylamino}-2-oxoethyl}-N^4-[1(S)-phenylethyl]-N^1-[1(S)-(cyclohexylmethyl)-2(R),3(S)-dihydroxy-5-methylhexyl]-2(R)-(cyclopropylmethyl)-butanediamide]
34	CCC[C@H](CC(=O)N(CC(=O)N(C)C)[C@@H](C)c1ccccc1)C(=O)N[C@@H](CC1CCCCC1)[C@@H](O)[C@@H](O)CC(C)C [Compound 25, N^4-[2-(dimethylamino)-2-oxoethyl]-N^4-[1(S)-phenylethyl]-N^1-[1(S)-(cyclohexylmethyl)-2(R),3(S)-dihydroxy-5-methylhexyl]-2(R)-propylbutanediamide]
29	CCC[C@H](CC(=O)N(CC(=O)N(C)CCc1ccccn1)Cc1ccccc1)C(=O)N[C@@H](CC1CCCCC1)[C@@H](O)[C@@H](O)CC(C)C [Compound 26, N^4-benzyl-N^4 -{2-{methyl[2-(2-pyridinyl)ethyl]amino}-2-oxoethyl}-N^1-[1(S)-(cyclohexylmethyl)-2(R),3(S)-dihydroxy-5-methylhexyl]-2(R)-propylbutanediamide]
1.3	CC(C)C[C@H](O)[C@H](O)[C@H](CC1CCCCC1)NC(=O)[C@@H](CC(=O)N(CC(=O)N(C)C)[C@@H](C)c1ccccc1)Cc1csc(N)n1 [Compound 28, N^4-[2-(dimethylamino)-2-oxoethyl]-N^4-[1(S)-phenylethyl]-N^1-[1(S)-(cyclohexylmethyl)-2(R),3(S)-dihydroxy-5-methylhexyl]-2(R)-[(2-amino-4-thiazolyl)methyl]butanediamide]
68	CC(C)C[C@H](O)[C@H](O)[C@H](CC1CCCCC1)NC(=O)[C@@H](CC(=O)N(CC(=O)N(C)CCc1ccncc1)Cc1ccccc1)CC1CC1 [Compound 29, N^4-benzyl-N^4 -{2-{methyl[2-(4-pyridinyl)ethyl]amino}-2-oxoethyl}-N^1-[1(S)-(cyclohexylmethyl)-2(R)3(S)-dihydroxy-5-methylhexyl]-2(R)-(cyclopropylmethyl)butanediamide]
120	CC(C)C[C@H](O)[C@H](O)[C@H](CC1CCCCC1)NC(=O)[C@@H](CC(=O)N(CC(=O)N1CCOCC1)[C@@H](C)c1ccccc1)CC1CC1 [Compound 33, N^4-[1(S)-phenylethyl-N^4-(2-morpholino-2-oxoethyl)-N^1-1(S)-(cyclohexylmethyl)-2(R),3(S)-dihydroxy-5-methylhexyl]-2(R)-(cyclopropylmethyl)butanediamide]
13	CC(C)C[C@H](O)[C@H](O)[C@H](CC1CCCCC1)NC(=O)[C@@H](CC(=O)N(CC(=O)N(C)CCc1ccccn1)Cc1ccccc1)Cc1cccs1 [Compound 34, N^4-benzyl-N^4 -{2-{methyl[2-(2-pyridinyl)ethyl]amino}-2-oxoethyl}-N^1-[1(S)-(cyclohexylmethyl)-2(R),3(S)-dihydroxy-5-methylhexyl]-2(S)-(2-thienylmethyl)butanediamide]
1.5	CC(C)C[C@H](O)[C@H](O)[C@H](CC1CCCCC1)NC(=O)[C@@H](CC(=O)N(CC(=O)N(C)C)CC1CCCCC1)Cc1cscn1 [Compound 36, N^4-(cyclohexylmethyl)-N^4-[2-(dimethylamino)-2-oxoethyl]-N^1-[1(S)-(cyclohexylmethyl)-2(R),3(S)-dihydroxy-5-methylhexyl]-2(R)-(4-thiazolylmethyl)butanediamide]
1.6	CC(C)C[C@H](O)[C@H](O)[C@H](CC1CCCCC1)NC(=O)[C@@H](CC(=O)N(CC(=O)N1CCOCC1)CC1CCCCC1)Cc1nccs1 [Compound 39, N^4-(cyclohexylmethyl)-N^4-(2-morpholino-2-oxoethyl)-N^1-[1(S)-(cyclohexylmethyl)-2(R),3(S)-dihydroxy-5-methylhexyl]-2(S)-(2-thiazolylmethyl)butanediamide]
